According to patent publication US8394843B2, “Substituted isoindoles as glucokinase activators” (Takeda California, Inc., priority 2006, dated 2013):
pEC50: −log10 of the molar value.

Molecular target: T1, glucokinase (GK) (Homo sapiens, UniProt P35557)
T1 construct: I.D. No. 1 corresponds to residues 12-465 of glucokinase; made in house; host or cells: E. coli DH10b-T1r
T1 sequence (P35557 with tags, fused parts or gaps isoform P35557-2): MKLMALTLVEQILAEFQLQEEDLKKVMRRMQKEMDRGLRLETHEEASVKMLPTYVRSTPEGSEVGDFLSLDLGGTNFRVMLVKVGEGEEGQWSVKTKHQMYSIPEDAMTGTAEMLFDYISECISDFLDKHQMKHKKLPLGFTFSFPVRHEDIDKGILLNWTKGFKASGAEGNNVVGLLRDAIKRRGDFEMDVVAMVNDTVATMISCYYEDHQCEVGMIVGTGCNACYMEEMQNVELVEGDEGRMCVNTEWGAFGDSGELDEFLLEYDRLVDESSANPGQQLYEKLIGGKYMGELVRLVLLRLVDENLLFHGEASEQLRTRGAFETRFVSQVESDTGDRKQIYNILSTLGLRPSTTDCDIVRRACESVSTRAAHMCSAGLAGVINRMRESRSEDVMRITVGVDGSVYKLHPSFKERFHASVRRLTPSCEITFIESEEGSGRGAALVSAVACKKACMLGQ
Assay: enzymatic glucokinase activity assay (ATP consumption, KinaseGlo luminescence)
Format: biochemical
Conditions: 5 mM Glucose, 5 μM ATP; for Emax: calculated maximal gain in GK enzyme activity at a saturating concentration of the compound, read-out: % ACTmax; for pEC50: negative log of Kact, the concentration that displays 50% of the maximal increase in GK activity, 60 min at room temperature, read-out: pKact
From the text: The activity of compounds as glucokinase activators may be assayed in vitro, in vivo or in a cell line. Provided below is an enzymatic glucokinase activity assay.
Purified glucokinase may be obtained as follows. DNA encoding residues 12-465 of the full-length sequence of the human enzyme may be amplified by PCR and cloned into the HindIII and EcoRI sites of pFLAG-CTC (Sigma). SEQ. I.D. No. 1 corresponds to residues 12-465 of glucokinase.
The expression of recombinant glucokinase protein may be carried out by transformation and growth of DH10b-T1r E. coli cells incorporating the (pFLAG-CTC) plasmid in LB media. Protein expression can be induced in this system by the addition of IPTG to the culture medium.
Recombinant protein may be isolated from cellular extracts by passage over Sepharose Q Fast Flow resin (Pharmacia). This partially purified GK extract may then be further purified by a second passage over Poros HQ10 (Applied Biosystems). The purity of GK may be determined on denaturing SDS-PAGE gel. Purified GK may then be concentrated to a final concentration of 20.0 mg/ml. After flash freezing in liquid nitrogen, the proteins can be stored at −78° C. in a buffer containing 25 mM TRIS-HCl pH 7.6, 50 mM NaCl, and 0.5 mM TCEP.
The activation properties of compounds for GK may be determined using a black 384-well-plate format under the following reaction conditions: 25 mM Hepes pH 7.2, 25 mM NaCl, 10 mM MgCl2, 0.01% Brij35, 1 mM DTT, 5 μM ATP, 5 mM Glucose 2% DMSO. The amount of ATP consumed may be determined quantitatively by addition of equal volume of luciferase reagent (luciferase+beetle luciferin—KinaseGlo Luminescent Kinase Assay kit from Promega). The luminescence intensity may be measured by using the Analyst HT from LJL Biosystems.
The assay reaction may be initiated as follows: 4 μl of substrate mixture (12.5 μM ATP and 12.5 mM Glucose) was added to each well of the plate, followed by the addition of 2 μl of activator (2 fold serial dilutions for 11 data points for each activator) containing 10% DMSO. 4 μL of 1.25 nM GK solution may be added to initiate the reaction. The reaction mixture may then be incubated at room temperature for 60 min, and quenched and developed by addition of 10 μL of luciferase reagent. Luminescence intensities of the resulting reaction mixtures may be measured after a 10 min incubation at room temperature. The luminescence intensity may be measured by using the Analyst HT from LJL Biosystems.
pKact and % ACTmax values may be calculated by non-linear curve fitting of the compound concentrations and luminescence intensities to a standard inhibition/activation equation. […] “pKact” is the negative log of the Kact value; i.e., −log10 [Kact]. % Actmax represents the calculated maximal gain in GK enzyme activity at a saturating concentration of the compound. pKact and % ACTmax values for select compounds of the present invention are given in Table 1.

In the case of `CC(C)CC(C(=O)Nc1nccs1)n1cc2cc(O)ccc2n1` (stereo not drawn) [Example 7, 2-(5-hydroxy-2H-indazol-2-yl)-4-methyl-N-(thiazol-2-yl)pentanamide], the Emax was over 60% and the pEC50 was at most 4.50.

Molecule `COc1ccc2nn(C(CC(C)C)C(=O)Nc3nccs3)cc2c1` (stereo not drawn) [Example 6, 2-(5-methoxy-2H-indazol-2-yl)-4-methyl-N-(thiazol-2-yl)pentanamide] has an Emax of 50 to 60% and a pEC50 of at most 4.50.

`Cc1c2ccccc2nn1C(CC(C)C)C(=O)Nc1nccs1` (stereo not drawn) [Example 8, 4-methyl-2-(3-methyl-2H-indazol-2-yl)-N-(thiazol-2-yl)pentanamide] was tested, and the Emax was under 50% and the pEC50 was at least 5.00.

With `N=C1c2ccccc2CN1C(CC1CCCCC1)C(=O)Nc1nccs1` (stereo not drawn) [Example 11, 3-cyclohexyl-2-(1-iminoisoindolin-2-yl)-N-(thiazol-2-yl)propanamide] the Emax was over 60% and the pEC50 was at least 5.00.

`N=C1c2cc(F)ccc2CN1C(CC1CCCCC1)C(=O)Nc1nccs1` (stereo not drawn) [Example 12, 3-cyclohexyl-2-(6-fluoro-1-iminoisoindolin-2-yl)-N-(thiazol-2-yl)propanamide] was tested, and the Emax was over 60% and the pEC50 was 4.60 to 4.90.

`CC(C)CC(C(=O)Nc1ccccn1)N1C(=O)c2ccccc2C1=O` (stereo not drawn) [Example 14, 2-(1,3-dioxoisoindolin-2-yl)-4-methyl-N-(pyridin-2-yl)pentanamide] gave an Emax of over 60% and a pEC50 of 4.60 to 4.90.

For `CC(C)CC(C(=O)Nc1nccs1)n1cc2ccc(S(C)(=O)=O)cc2n1` (stereo not drawn) [Example 5, 4-methyl-2-(6-(methylsulfonyl)-2H-indazol-2-yl)-N-(thiazol-2-yl)pentanamide], the Emax was under 50% and the pEC50 was 4.60 to 4.90.

Work on `CC(C)CC(C(=O)Nc1nccs1)n1cc2ccc([N+](=O)[O-])cc2n1` (stereo not drawn) [Example 4, 4-methyl-2-(6-nitro-2H-indazol-2-yl)-N-(thiazol-2-yl)pentanamide] yielded an Emax of under 50% and a pEC50 of at least 5.00.

For `CC(C)CC(C(=O)Nc1nccs1)N1C(=O)c2ccccc2C1=O` (stereo not drawn) [Example 13, 2-(1,3-dioxoisoindolin-2-yl)-4-methyl-N-(thiazol-2-yl)pentanamide], the Emax was over 60% and the pEC50 was at least 5.00.

`Cc1c2cc(F)ccc2nn1C(CC(C)C)C(=O)Nc1nccs1` (stereo not drawn) [Example 9, 2-(5-fluoro-3-methyl-2H-indazol-2-yl)-4-methyl-N-(thiazol-2-yl)pentanamide] was tested, and the Emax was 50 to 60% and the pEC50 was 4.60 to 4.90.

In the case of `CC(C)CC(C(=O)Nc1nccs1)n1cc2cc(F)ccc2n1` (stereo not drawn) [Example 3, 2-(5-fluoro-2H-indazol-2-yl)-4-methyl-N-(thiazol-2-yl)pentanamide], the Emax was 50 to 60% and the pEC50 was at most 4.50.

`CC(C)CC(C(=O)Nc1nccs1)n1cc2ccccc2n1` (stereo not drawn) [Example 2, 2-(2H-indazol-2-yl)-4-methyl-N-(thiazol-2-yl)pentanamide] was tested, and the Emax was over 60% and the pEC50 was at most 4.50.
